Results reported in US20110212986A1, “ANTI-FLAVIVIRUS THERAPEUTIC” (priority 2008, published 2011).
Entries after “also recorded” stand apart in the source; their conditions may differ.

Legend:
[1] = tested on: WNV (epidemic strain 3356); assay: microbe, parasite or virus in culture; assay type: cell-based; details: West Nile virus, Vero, 42 h
[2] = tested on: Rluc2A-Rep of DENV-1 in BHK-21 cells; assay type: cell-based, dengue virus
WNV NTPase = WNV NTPase (West Nile virus, UniProt Q9Q6P4); assay: Enzyme assay, recombinant WNV NTPase; details: concentrations up to 100 μM
Chain of WNV NTPase (Q9Q6P4 1506-2124): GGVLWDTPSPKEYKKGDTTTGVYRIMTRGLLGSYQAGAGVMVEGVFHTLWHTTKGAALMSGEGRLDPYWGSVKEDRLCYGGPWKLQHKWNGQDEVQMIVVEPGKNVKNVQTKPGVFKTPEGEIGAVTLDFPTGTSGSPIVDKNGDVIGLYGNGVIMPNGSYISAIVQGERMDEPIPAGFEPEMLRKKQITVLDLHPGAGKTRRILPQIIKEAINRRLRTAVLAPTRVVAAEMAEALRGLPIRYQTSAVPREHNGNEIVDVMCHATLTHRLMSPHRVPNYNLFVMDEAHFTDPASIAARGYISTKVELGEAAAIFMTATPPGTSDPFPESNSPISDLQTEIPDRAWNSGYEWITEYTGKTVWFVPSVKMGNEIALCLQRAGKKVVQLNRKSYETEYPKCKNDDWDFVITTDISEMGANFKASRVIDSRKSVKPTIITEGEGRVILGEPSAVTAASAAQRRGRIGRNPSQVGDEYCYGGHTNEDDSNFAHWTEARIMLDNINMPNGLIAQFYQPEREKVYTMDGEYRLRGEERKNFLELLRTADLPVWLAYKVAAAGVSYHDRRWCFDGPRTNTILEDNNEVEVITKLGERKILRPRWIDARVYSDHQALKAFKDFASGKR

WNV protease (with NS2B) = WNV protease (with NS2B) (West Nile virus, UniProt Q9Q6P4); assay: Enzyme assay, recombinant WNV protease; details: concentrations up to 100 μM
Chain of WNV protease (with NS2B) (Q9Q6P4 1506-2124): as above
Chain of WNV protease (with NS2B) (Q9Q6P4 1375-1505): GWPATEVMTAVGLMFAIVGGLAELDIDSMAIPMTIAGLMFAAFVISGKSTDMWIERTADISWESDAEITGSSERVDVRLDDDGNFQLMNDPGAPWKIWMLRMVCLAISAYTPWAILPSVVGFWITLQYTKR

poliovirus = details: cited from earlier work
[3] = tested on: VSV (New Jersey serotype); assay type: cell-based, vesicular stomatitis virus
WNV RdRp = WNV RdRp (West Nile virus, UniProt Q9Q6P4); assay: Enzyme assay, recombinant WNV RdRp; details: concentrations up to 100 μM
Chain of WNV RdRp (Q9Q6P4 2529-3433): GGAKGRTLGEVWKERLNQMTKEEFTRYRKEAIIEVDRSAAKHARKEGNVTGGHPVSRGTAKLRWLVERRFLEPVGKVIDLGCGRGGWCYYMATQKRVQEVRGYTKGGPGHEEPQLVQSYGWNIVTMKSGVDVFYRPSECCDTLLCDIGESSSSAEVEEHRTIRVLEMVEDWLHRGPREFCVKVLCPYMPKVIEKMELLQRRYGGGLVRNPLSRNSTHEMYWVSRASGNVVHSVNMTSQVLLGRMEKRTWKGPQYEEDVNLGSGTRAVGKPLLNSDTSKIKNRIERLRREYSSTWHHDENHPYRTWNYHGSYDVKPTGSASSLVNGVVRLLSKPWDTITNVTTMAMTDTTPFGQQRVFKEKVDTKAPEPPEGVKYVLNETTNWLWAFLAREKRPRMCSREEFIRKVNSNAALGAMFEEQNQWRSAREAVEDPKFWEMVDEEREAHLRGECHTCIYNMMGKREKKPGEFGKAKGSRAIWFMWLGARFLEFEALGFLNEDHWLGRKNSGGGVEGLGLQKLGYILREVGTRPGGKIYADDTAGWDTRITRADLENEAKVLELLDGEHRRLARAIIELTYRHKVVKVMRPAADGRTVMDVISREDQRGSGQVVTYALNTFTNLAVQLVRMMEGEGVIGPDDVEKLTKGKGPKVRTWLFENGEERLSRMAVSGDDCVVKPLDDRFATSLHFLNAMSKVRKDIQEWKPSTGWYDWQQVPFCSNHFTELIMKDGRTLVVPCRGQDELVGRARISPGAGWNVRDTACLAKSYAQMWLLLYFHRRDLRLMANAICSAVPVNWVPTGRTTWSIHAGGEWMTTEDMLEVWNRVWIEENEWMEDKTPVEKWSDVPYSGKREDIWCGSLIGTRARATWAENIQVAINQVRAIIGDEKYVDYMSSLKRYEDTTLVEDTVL

[4] = tested on: Vero cells containing DENV-1 replicon (Rluc-Neo-Rep); assay type: cell-based, dengue virus; details: 1.5-1 μM for 24 h or 48 h
[5] = tested on: lycorine-resistant WNV (P12 viruses); assay: Resistance assay, lycorine-resistant P12 WNV; assay type: cell-based, West Nile virus; details: 1.2 μM
[6] = tested on: G6871A mutant WNV replicon (Rluc2A-Rep); assay type: cell-based, West Nile virus; details: 1.5 μM; BHK-21 cells
HIV-1 = details: at a noncytotoxic concentration; Szlavik et al., 2004; cited from earlier work
[7] = tested on: G6871A mutant virus (WNV); assay type: cell-based; details: Vero cells, 0.1 MOI
[8] = tested on: Vero cells containing WNV replicon (Rluc-Neo-Rep); assay type: cell-based, West Nile virus; details: 1.5-1 μM for 24 h or 48 h
WNV VLP = assay type: cell-based, West Nile virus; details: 1.5 μM
WEEV (strain Cova 746) = assay type: cell-based, Western equine encephalitis virus
WNV (WT and G6871A MT) = assay type: cell-based; details: 1.2 μM; Vero cells, MOI 5; each time point
[9] = tested on: Rluc2A-Rep of WNV in BHK-21 cells; assay type: cell-based, West Nile virus
WNV MTase = WNV MTase (West Nile virus, UniProt Q9Q6P4); assay: Enzyme assay, recombinant WNV MTase; details: concentrations up to 100 μM
Chain of WNV MTase (Q9Q6P4 2529-3433): as above

DENV-1 VLP = assay type: cell-based, dengue virus; details: 1.5 μM
WNV = assay: Time-of-addition analysis in WNV infection; assay type: cell-based, West Nile virus; details: 1.2 μM; Vero cells, WNV MOI 10; titers at 20 h post-infection
in vitro = details: African green monkey

CC(=O)O[C@H]1[C@H]2c3cc4c(cc3CN3CCC(=C[C@@H]1O)[C@H]23)OCO4 [Compound 1181]
EC50 [1]: 0.86 µM

CC(C)(C)[Si](C)(C)O[C@H]1C=C2CCN3Cc4cc5c(cc4[C@H]([C@@H]1O)[C@@H]23)OCO5 [Compound 1198]
EC50 [1]: 0.73 µM

O[C@H]1[C@H]2c3cc4c(cc3CN3CCC(=C[C@@H]1O)[C@H]23)OCO4 [Lycorine]
suppression of early luciferase signals (viral translation), DENV-1 replicon ([2]; 1.5 μM, 2, 4, and 6 h p.t.): ≤ 30% | reduction of late luciferase signals (RNA synthesis), DENV-1 replicon ([2]; 1.5 μM, 24, 30 and 48 h p.t.): > 99% | suppression of WNV NTPase activity (WNV NTPase): None of the enzyme activities were suppressed | suppression of WNV protease (with NS2B) activity (WNV protease (with NS2B)): None of the enzyme activities were suppressed | suppression of poliovirus viral translation (poliovirus): ~90% | EC50 [1]: 0.23 µM | inhibition of VSV (viral titer) [3]: did not inhibit; also recorded: suppressed titers of neither WEEV nor VSV; also recorded: does not inhibit | suppression of WNV RdRp activity (WNV RdRp): None of the enzyme activities were suppressed | luciferase activities in DENV Rluc-Neo-Rep cells [4]: reduced luciferase activities | increase of resistance of the P12 viruses over that of the WT [5]: approximately 100 fold | reduction of viral titers of P12 virus-infected cells ([5]; Vero cells, MOI 0.1, 42 h p.i.): approximately 10 fold | suppression of reporting signals at 2, 4, and 6 h p.t., G6871A mutant replicon [6]: ≤ 30% | inhibition of HIV-1 (HIV-1): does not inhibit | resistance of G6871A mutant virus to the compound [7]: showed a resistance level close to those of the P12 viruses | luciferase activities in WNV Rluc-Neo-Rep cells [8]: reduced luciferase activities | reduction of luciferase signals, WNV VLP-infected cells (WNV VLP): 1,400 fold | inhibition of WEEV (viral titer) (WEEV (strain Cova 746)): did not inhibit; also recorded: suppressed titers of neither WEEV nor VSV; also recorded: does not inhibit | viral protein expression (NS1, NS3, NS5), western blotting (WNV (WT and G6871A MT)): suppressed viral protein expression | CC50 (Vero cells; African green monkey): 24 µM | cell viability (Vero cells; African green monkey): > 90% | decrease of viability of Vero cells (Vero cells; at 31 μM): ~50% | suppression of early luciferase signals (viral translation), WNV replicon ([9]; 1.5 μM, 2, 4, and 6 h p.t.): ≤ 30% | reduction of late luciferase signals (RNA synthesis), WNV replicon ([9]; 1.5 μM, 24, 30 and 48 h p.t.): > 99% | suppression of WNV MTase activity (WNV MTase): None of the enzyme activities were suppressed | reduction of luciferase signals, DENV-1 VLP-infected cells (DENV-1 VLP): 1,200 fold | antiviral activity when added after 10 h post-infection (WNV): completely lost its antiviral activity; also recorded: completely lost the inhibitory activity

CC(=O)O[C@H]1[C@H]2c3cc4c(cc3CN(C(=O)OCC(Cl)(Cl)Cl)[C@@H]2C(CCCl)=C[C@@H]1OC(C)=O)OCO4 [Compound 1193]
EC50 [1]: > 300 µM | CC50 (Vero cells; African green monkey): > 300 µM

CC(=O)O[C@H]1[C@H]2c3cc4c(cc3C(=O)N3CCC(=C[C@@H]1OC(C)=O)[C@H]23)OCO4 [Compound 1197]
EC50 [1]: ≥ 300 µM | CC50 (Vero cells; African green monkey): > 300 µM

CC(=O)O[C@@H]1C(=O)C=C2CCN3Cc4cc5c(cc4[C@H]1[C@@H]23)OCO5 [Compound 1200]
EC50 [1]: 0.19 µM | resistance of G6871A mutant virus to the compound [7]: resistant | CC50 (Vero cells; African green monkey): > 300 µM | CC50 (in vitro): > 300 µM

CC(=O)OCCC1=C[C@H](OC(C)=O)[C@@H](OC(C)=O)[C@H]2c3cc4c(cc3CN(C(=O)OCC(Cl)(Cl)Cl)[C@H]12)OCO4 [Compound 1194]
EC50 [1]: 72 µM | CC50 (Vero cells; African green monkey): > 300 µM

CC(=O)O[C@H]1[C@H]2c3cc4c(cc3CN3CCC(=C[C@@H]1OC(C)=O)[C@H]23)OCO4 [Compound 1180]
EC50 [1]: 1.49 µM
